Results: PubChem BioAssay AID256 (DTP/NCI, 2004)
“And” between values parts separate entries of the source, which are not always exact repeats. Equal values may be shown once. Inconclusive results and toxic doses are left out.

Test system: CD2F1 mice, L1210 leukemia ip, survival T/C
Test: NCI In Vivo Anticancer Drug Screen. Data for tumor model L1210 Leukemia (intraperitoneal) in CD2F1 (CDF1) mice
Conditions: higher = longer survival
Method in brief: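 Antitumor effect is scored in animals hosting a serially transplanted tumor. Values compare compound-dosed animals against vehicle-only controls as a simple quotient.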

[1] = endpoint: mean survival time, dose: 12.5 mg/kg/injection, schedule: Q01DX009 (ip), vehicle: saline with Tween-80
[2] = endpoint: mean survival time, dose: 25.0 mg/kg/injection, schedule: Q01DX009 (ip), vehicle: saline with Tween-80
[3] = endpoint: mean survival time, dose: 50.0 mg/kg/injection, schedule: Q01DX009 (ip), vehicle: saline with Tween-80
[4] = endpoint: median survival time, dose: 3.12 mg/kg/injection, schedule: Q01DX009 (ip), vehicle: saline
[5] = endpoint: median survival time, dose: 6.25 mg/kg/injection, schedule: Q01DX009 (ip), vehicle: saline
[6] = endpoint: median survival time, dose: 12.5 mg/kg/injection, schedule: Q01DX009 (ip), vehicle: saline
[7] = endpoint: mean survival time, dose: 100.0 mg/kg/injection, schedule: Q04DX003 (ip), vehicle: saline with Tween-80
[8] = endpoint: mean survival time, dose: 200.0 mg/kg/injection, schedule: Q04DX003 (ip), vehicle: saline with Tween-80
[9] = endpoint: mean survival time, dose: 400.0 mg/kg/injection, schedule: Q04DX003 (ip), vehicle: saline with Tween-80
[10] = endpoint: median survival time, dose: 3.12 mg/kg/injection, schedule: Q04DX003 (ip), vehicle: saline with Tween-80
[11] = endpoint: median survival time, dose: 6.25 mg/kg/injection, schedule: Q04DX003 (ip), vehicle: saline with Tween-80
[12] = endpoint: median survival time, dose: 6.25 mg/kg/injection, schedule: Q04DX003 (ip), vehicle: saline
[13] = endpoint: median survival time, dose: 12.5 mg/kg/injection, schedule: Q04DX003 (ip), vehicle: saline
[14] = endpoint: mean survival time, dose: 100.0 mg/kg/injection, schedule: Q01DX009 (ip), vehicle: saline with Tween-80
[15] = endpoint: mean survival time, dose: 200.0 mg/kg/injection, schedule: Q01DX009 (ip), vehicle: saline with Tween-80
[16] = endpoint: mean survival time, dose: 400.0 mg/kg/injection, schedule: Q01DX009 (ip), vehicle: saline with Tween-80

For `COc1ccc2ccccc2c1`, the T/C (endpoint: mean survival time, dose: 100.0 mg/kg/injection, schedule: Q01DX001 (ip), vehicle: saline with Tween-80) was 101 % of control, the T/C (endpoint: mean survival time, dose: 100.0 mg/kg/injection, schedule: Q04DX003 (ip), vehicle: other) was 100 % of control and the T/C (endpoint: mean survival time, dose: 200.0 mg/kg/injection, schedule: Q01DX001 (ip), vehicle: saline with Tween-80) was 100 % of control. The T/C (endpoint: mean survival time, dose: 200.0 mg/kg/injection, schedule: Q04DX003 (ip), vehicle: other) was 104 % of control and the T/C (endpoint: mean survival time, dose: 400.0 mg/kg/injection, schedule: Q01DX001 (ip), vehicle: saline with Tween-80) was 111 % of control.
In the case of `COc1ccc(C(C)C(C)=O)cc1` (stereo unspecified), the T/C [1] is reported as 91 % of control, the T/C [2] is reported as 91 % of control and the T/C [3] is reported as 95 % of control.
`COc1ccc(C(=O)C(CN(C)C)CN(C)C)cc1` was tested, and the T/C [4] was 96 % of control, the T/C [5] was 103 % of control and the T/C [6] was 104 % of control. The T/C (endpoint: median survival time, dose: 25.0 mg/kg/injection, schedule: Q01DX009 (ip), vehicle: saline) was 114 % of control.
`CCO/C=C1\SC(=S)N(c2cccc(OC)c2)C1=O` was tested, and the T/C [7] was 96 % of control, the T/C [8] was 106 % of control and the T/C [9] was 101 % of control.
With `NP(=O)(OCCCCOCc1ccccc1)N(CCCl)CCCl` (stereo unspecified) the T/C (endpoint: mean survival time, dose: 25.0 mg/kg/injection, schedule: Q01DX001 (ip), vehicle: other) was 98 % of control, the T/C (endpoint: mean survival time, dose: 50.0 mg/kg/injection, schedule: Q01DX001 (ip), vehicle: other) was 101 % of control and the T/C (endpoint: mean survival time, dose: 100.0 mg/kg/injection, schedule: Q01DX001 (ip), vehicle: other) was 101 % of control. The T/C (endpoint: mean survival time, dose: 200.0 mg/kg/injection, schedule: Q01DX001 (ip), vehicle: other) was 90 % of control and the T/C (endpoint: mean survival time, dose: 400.0 mg/kg/injection, schedule: Q01DX001 (ip), vehicle: other) was 95 % of control.
With `CC1Sc2ccccc2-c2[nH]c3ccccc3c21` (stereo unspecified) the T/C [7] was 97 % of control, the T/C [8] was 87 % of control and the T/C [9] was 90 % of control.
In the case of `NC1CCCCC1N.O=C1C=CC(=C(c2ccc(O)cc2)c2ccccc2S(=O)(=O)[O-])C=C1.O=[N+]([O-])[O-].[Pt+4]`, the T/C (endpoint: median survival time, dose: 1.56 mg/kg/injection, schedule: Q04DX003 (ip), vehicle: saline) is reported as 170 % of control, the T/C [10] is reported as 361 % of control and the T/C (endpoint: median survival time, dose: 3.12 mg/kg/injection, schedule: Q04DX003 (ip), vehicle: saline) is reported as 353 % of control. The T/C [11] was 361 % of control, the T/C [12] was 243 % of control and the T/C [13] was 365 % of control.
`NCc1ccc(-n2cnc3c(=O)[nH]c(N)nc32)cc1` was tested, and the T/C (endpoint: mean survival time, dose: 50.0 mg/kg/injection, schedule: Q04DX002 (ip), vehicle: saline with Tween-80) was 90 % of control, the T/C (endpoint: mean survival time, dose: 100.0 mg/kg/injection, schedule: Q04DX002 (ip), vehicle: saline with Tween-80) was 107 % of control and the T/C (endpoint: mean survival time, dose: 200.0 mg/kg/injection, schedule: Q04DX002 (ip), vehicle: saline with Tween-80) was 101 % of control.
With `CCCCCCCCCCCCCCCC[N+]1(CC)CC[N+](CC)(CCCCCCCCCCCCCCCC)CC1` (stereo unspecified) the T/C (endpoint: mean survival time, dose: 100.0 mg/kg/injection, schedule: Q04DX003 (ip), vehicle: Klucel (hydroxypropylcellulose) (HPC)) was 96 % of control, the T/C (endpoint: mean survival time, dose: 200.0 mg/kg/injection, schedule: Q04DX003 (ip), vehicle: Klucel (hydroxypropylcellulose) (HPC)) was 90 % of control and the T/C (endpoint: mean survival time, dose: 400.0 mg/kg/injection, schedule: Q04DX003 (ip), vehicle: Klucel (hydroxypropylcellulose) (HPC)) was 100 % of control.
With `COC(=O)CC(=O)NC(C)CC1CNc2ccccc21` (stereo unspecified) the T/C [7] was 103 % of control, the T/C [8] was 103 % of control and the T/C [9] was 97 % of control.
For `Nc1ncnc2c(C3OC(CO)C(O)C3O)c[nH]c12` (stereo unspecified), the T/C (endpoint: median survival time, dose: 0.05 mg/kg/injection, schedule: Q01DX005 (ip), vehicle: saline) was 114 % of control and 121 % of control, the T/C (endpoint: median survival time, dose: 0.1 mg/kg/injection, schedule: Q01DX005 (ip), vehicle: saline) was 116 % of control and 123 % of control and the T/C (endpoint: median survival time, dose: 0.4 mg/kg/injection, schedule: Q01DX005 (ip), vehicle: saline) was 115 % of control. For the same compound, the T/C (endpoint: median survival time, dose: 0.8 mg/kg/injection, schedule: Q01DX005 (ip), vehicle: saline) was 102 % of control and 104 % of control.
`CC1CCC(C(O)(C(=O)c2ccccc2)c2ccccc2)C(=O)C1` (stereo unspecified) was tested, and the T/C [14] was 100 % of control, the T/C [15] was 98 % of control and the T/C [16] was 98 % of control.
With `O=CC(O)C(O)C(O)C(O)C(=O)O.[NH-]C1CCCCC1[NH-].[Pt+2]` (stereo unspecified) the T/C (endpoint: mean survival time, dose: 0.78 mg/kg/injection, schedule: Q01DX005 (ip), vehicle: saline) was 156 % of control, the T/C (endpoint: mean survival time, dose: 1.56 mg/kg/injection, schedule: Q01DX005 (ip), vehicle: saline) was 203 % of control and the T/C (endpoint: mean survival time, dose: 1.56 mg/kg/injection, schedule: Q01DX009 (ip), vehicle: saline) was 160 % of control. For the same compound, the T/C (endpoint: mean survival time, dose: 3.12 mg/kg/injection, schedule: Q01DX005 (ip), vehicle: saline) was 266 % of control, the T/C (endpoint: mean survival time, dose: 3.12 mg/kg/injection, schedule: Q04DX003 (ip), vehicle: saline) was 150 % of control and the T/C (endpoint: mean survival time, dose: 3.13 mg/kg/injection, schedule: Q01DX009 (ip), vehicle: saline) was 200 % of control. For the same compound, the T/C (endpoint: mean survival time, dose: 6.25 mg/kg/injection, schedule: Q01DX005 (ip), vehicle: saline) was 300 % of control, the T/C (endpoint: mean survival time, dose: 6.25 mg/kg/injection, schedule: Q01DX009 (ip), vehicle: saline) was 167 % of control and the T/C (endpoint: mean survival time, dose: 6.25 mg/kg/injection, schedule: Q04DX003 (ip), vehicle: saline) was 280 % of control. The T/C (endpoint: mean survival time, dose: 12.5 mg/kg/injection, schedule: Q01DX005 (ip), vehicle: saline) was 103 % of control, the T/C (endpoint: mean survival time, dose: 12.5 mg/kg/injection, schedule: Q04DX003 (ip), vehicle: saline) was 301 % of control and the T/C (endpoint: mean survival time, dose: 25.0 mg/kg/injection, schedule: Q04DX003 (ip), vehicle: saline) was 231 % of control and 259 % of control. For the same compound, the T/C (endpoint: mean survival time, dose: 50.0 mg/kg/injection, schedule: Q04DX003 (ip), vehicle: saline) was 108 % of control, the T/C (endpoint: median survival time, dose: 1.02 mg/kg/injection, schedule: Q01DX009 (ip), vehicle: saline) was 160 % of control and 170 % of control and the T/C (endpoint: median survival time, dose: 1.37 mg/kg/injection, schedule: Q01DX009 (ip), vehicle: saline) was 170 % of control and 180 % of control. The T/C (endpoint: median survival time, dose: 1.56 mg/kg/injection, schedule: Q01DX009 (ip), vehicle: saline) was 236 % of control, the T/C (endpoint: median survival time, dose: 2.09 mg/kg/injection, schedule: Q01DX009 (ip), vehicle: saline) was 189 % of control and 714 % of control and the T/C [4] was 188 % of control and 253 % of control and 261 % of control. For the same compound, the T/C [5] was 119 % of control, the T/C [12] was 101 % of control and the T/C [6] was 90 % of control. For the same compound, the T/C [13] was 100 % of control, the T/C (endpoint: median survival time, dose: 12.5 mg/kg/injection, schedule: Q04DX003 (iv), vehicle: saline) was 123 % of control and the T/C (endpoint: median survival time, dose: 25.0 mg/kg/injection, schedule: Q04DX003 (ip), vehicle: saline) was 103 % of control. The T/C (endpoint: median survival time, dose: 50.0 mg/kg/injection, schedule: Q04DX003 (iv), vehicle: saline) was 365 % of control and the T/C (endpoint: median survival time, dose: 100.0 mg/kg/injection, schedule: Q04DX003 (ip), vehicle: saline) was 113 % of control.
In the case of `COC(=O)/C=C/C=C/C(=O)OC`, the T/C [14] is reported as 96 % of control, the T/C [7] is reported as 103 % of control and the T/C [15] is reported as 96 % of control. The T/C [8] was 112 % of control, the T/C [16] was 104 % of control and the T/C [9] was 103 % of control.
`COc1cc2nc(C(O)C(O)c3nc4cc(OC)c(OC)cc4[nH]3)[nH]c2cc1OC` (stereo unspecified) was tested, and the T/C [7] was 101 % of control and the T/C [8] was 98 % of control.
For `NC1CCCCC1N.O=C(Nc1ccc2c(O)cc(S(=O)(=O)[O-])cc2c1)c1ccccc1.O=C(Nc1ccc2c(O)cc(S(=O)(=O)[O-])cc2c1)c1ccccc1.[Pt+4]`, the T/C (endpoint: median survival time, dose: 1.56 mg/kg/injection, schedule: Q04DX003 (ip), vehicle: saline with Tween-80) was 166 % of control, the T/C [10] was 204 % of control and 344 % of control and the T/C [11] was 289 % of control and 344 % of control. For the same compound, the T/C (endpoint: median survival time, dose: 12.5 mg/kg/injection, schedule: Q04DX003 (ip), vehicle: saline with Tween-80) was 289 % of control and the T/C (endpoint: median survival time, dose: 25.0 mg/kg/injection, schedule: Q04DX003 (ip), vehicle: saline with Tween-80) was 91 % of control.
`COc1cc(NC(=O)CCl)ccc(=O)c1` was tested, and the T/C [1] was 106 % of control, the T/C (endpoint: mean survival time, dose: 12.5 mg/kg/injection, schedule: Q04DX003 (ip), vehicle: saline with Tween-80) was 99 % of control and the T/C [2] was 104 % of control. For the same compound, the T/C (endpoint: mean survival time, dose: 25.0 mg/kg/injection, schedule: Q04DX003 (ip), vehicle: saline with Tween-80) was 91 % of control, the T/C [3] was 90 % of control and the T/C (endpoint: mean survival time, dose: 50.0 mg/kg/injection, schedule: Q04DX003 (ip), vehicle: saline with Tween-80) was 94 % of control.
For `Cc1nc2ccc(CCN3CCN(c4ccccc4Cl)CC3)cc2[nH]1`, the T/C (endpoint: mean survival time, dose: 50.0 mg/kg/injection, schedule: Q04DX003 (ip), vehicle: Klucel (hydroxypropylcellulose) (HPC)) was 112 % of control.
